Starred links: 1 amine or outer side, 2 acyl side, 3 side chain; linkers in the order of their positions; H or OH if unused. Non-standard residues stand in square brackets, D forms with d. Residues, ends and D or L forms follow the SMILES beside them. ξ: configuration not given here. Pheψ(R-CH(OH)CH2N)Pro = O=C([C@@H]1CCCN1C[C@@H](O)[C@H](Cc1ccccc1)N[*:1])[*:2]; Sta = CC(C)C[C@H](N)[C@@H](O)CC(=O)O; ξIva = CCC(C)(N)C(=O)O

For this test, the target named is Human immunodeficiency virus type 1 protease (Human immunodeficiency virus 1, UniProt Q72874). In words: Inhibitory potency against HIV-1 protease.
Regarding `CC[C@H](C)[C@H](NC(=O)[C@@H](C(C)C)C(O)C(O)[C@H](CC1CCCCC1)NC(=O)CC1CCCCC1)C(=O)NCc1ccccn1` (stereo partly drawn), the IC50 was 49.5 nM.

The compound `CC[C@H](C)[C@H](NC(=O)[C@@H](C(C)C)C(O)C(O)[C@H](CC1CCCCC1)NC(=O)[C@H](Cc1c[nH]cn1)NC(=O)COc1ccccc1)C(=O)NCc1ccccn1` (stereo partly drawn) had an IC50 of 4.5 nM. `CC(C)(C)N(C[C@@H](O)[C@H](Cc1ccccc1)NC(=O)[C@H](CC(N)=O)NC(=O)c1ccc2ccccc2n1)C(=O)NCC1CCCCC1`: the IC50 is 5 nM. Regarding `CC(C)(C)OC(=O)[C@@H]1CCCN1CC(O)[C@H](Cc1ccccc1)NC(=O)[C@H](CC(N)=O)NC(=O)OCc1ccccc1` (stereo partly drawn), half-maximal inhibition (IC50) was put at 140 nM. In the case of `CC(C)(C)N(C[C@@H](O)[C@H](Cc1ccccc1)NC(=O)[C@H](CC(N)=O)NC(=O)c1ccc2ccccc2n1)C(=O)NCc1ccccc1`, the IC50 is 3 nM.

In turn, `CC[C@H](C)CNC(=O)[C@@H](C(C)C)C(O)C(O)[C@H](CC(C)C)NC(=O)[C@H](Cc1c[nH]cn1)NC(=O)[C@H](Cc1ccccc1)NC(=O)OC(C)(C)C` (stereo partly drawn) gave an IC50 of 809 nM. In turn, `CC(C)(C)NC(=O)[C@@H]1C[C@@H]2CCCC[C@@H]2CN1C[C@H](O)[C@H](Cc1ccccc1)NC(=O)[C@H](CC(N)=O)NC(=O)OCc1ccccc1` showed an IC50 of 2.7 nM.

In the case of `COC(=O)[C@@H](NC(=O)[C@H](CC(C)C)NC(=O)[C@@H]1CCCN1C[C@@H](O)[C@H](Cc1ccccc1)NC(=O)[C@H](CC(N)=O)NC(=O)[C@H](CC(C)C)NC(=O)[C@H](CO)NC(C)=O)C(C)C` (Ac-SLN[Pheψ(R-CH(OH)CH2N)Pro]LV-OMe), half-maximal inhibition (IC50) was put at 3.4 nM. As for `C[C@@H](NC(=O)N(C[C@@H](O)[C@H](Cc1ccccc1)NC(=O)[C@H](CC(N)=O)NC(=O)OCc1ccccc1)C(C)(C)C)c1ccccc1`, it took 6500 nM to reach half-maximal inhibition (IC50). Then `CC(C)(C)NC(=O)[C@@H]1CCCCN1C[C@@H](O)[C@H](Cc1ccccc1)NC(=O)[C@H](CC(N)=O)NC(=O)c1ccc2ccccc2n1`, with 470 nM; and `CC[C@H](C)[C@H](NC(=O)[C@@H]1CCCN1C[C@@H](O)[C@H](Cc1ccccc1)NC(=O)[C@H](CC(N)=O)NC(=O)OCc1ccccc1)C(=O)N[C@H](C(=O)OC)C(C)C`, with 13 nM. Regarding `CC[C@H](C)CNC(=O)[C@@H](C(C)C)C(O)C(O)[C@H](Cc1c[nH]cn1)NC(=O)COc1ccccc1` (stereo partly drawn), the IC50 is 809 nM. Take `CC[C@H](C)[C@H](NC(=O)[C@@H](C(C)C)C(O)C(O)[C@H](CC1CCCCC1)NC(=O)[C@H](Cc1c[nH]cn1)NC(=O)COc1cccc2ccccc12)C(=O)NCc1ccccn1` (stereo partly drawn): the IC50 was 1.8 nM.

In the case of `CC(C)CCNC(=O)N(C[C@@H](O)[C@H](Cc1ccccc1)NC(=O)[C@H](CC(N)=O)NC(=O)OCc1ccccc1)C(C)(C)C`, the IC50 was 13 nM. `CC[C@H](C)[C@H](NC(=O)[C@@H](C(C)C)C(O)C(O)[C@H](CC(C)C)NC(=O)[C@H](Cc1c[nH]cn1)NC(=O)[C@H](Cc1ccccc1)NC(=O)OC(C)(C)C)C(=O)NCc1ccccn1` (stereo partly drawn) had an IC50 of 63 nM.

In turn, `CC[C@H](C)[C@H](NC(=O)[C@@H]1CCCN1C[C@@H](O)[C@H](Cc1ccccc1)NC(=O)[C@H](CC(N)=O)NC(=O)OCc1ccccc1)C(=O)N[C@@H](Cc1ccccc1)C(=O)OC` had an IC50 of 4 nM. `CC(C)(C)NC(=O)C1CCCCN1C[C@H](O)[C@H](Cc1ccccc1)NC(=O)C(CC#N)NC(=O)OCc1ccccc1` (stereo partly drawn) had an IC50 of 23 nM. Consider `CC[C@H](C)[C@H](NC(=O)[C@@H](CC(C)C)C(O)C(O)[C@H](CC1CCCCC1)NC(=O)[C@H](Cc1c[nH]cn1)NC(=O)COc1cccc2ccccc12)C(=O)NCc1ccccn1` (stereo partly drawn), for which the IC50 is 11.2 nM. In turn, `CC(C)CNC(=O)N(C[C@@H](O)[C@H](Cc1ccccc1)NC(=O)[C@H](CC(N)=O)NC(=O)c1ccc2ccccc2n1)C(C)(C)C` had an IC50 of 6.01 nM. Take `CC(C)(C)N(C[C@@H](O)[C@H](Cc1ccccc1)NC(=O)[C@H](CC(N)=O)NC(=O)OCc1ccccc1)C(=O)NCc1ccccc1`: the IC50 is 19 nM. The compound `CC[C@H](C)[C@H](NC(=O)[C@@H]1C[C@@H]2CCCC[C@@H]2CN1C[C@@H](O)[C@H](Cc1ccccc1)NC(=O)[C@H](CC(N)=O)NC(=O)OCc1ccccc1)C(=O)N[C@H](C(=O)OC)C(C)C` showed an IC50 of 316 nM. `CC(C)(C)NC(=O)[C@@H]1C[C@@H]2CCCC[C@@H]2CN1C[C@@H](O)[C@H](Cc1ccccc1)NC(=O)[C@H](CC(N)=O)NC(=O)OCc1ccccc1`: it took 316 nM to reach half-maximal inhibition (IC50).

`CSCC(NC(=O)c1ccc2ccccc2n1)C(=O)N[C@@H](Cc1ccccc1)[C@@H](O)CN1CCCCC1C(=O)NC(C)(C)C` (stereo partly drawn) showed a half-inhibitory concentration (IC50) of 12 nM. With `CC[C@H](C)[C@H](NC(=O)[C@@H](CC1CCCCC1)C(O)C(O)[C@H](CC1CCCCC1)NC(=O)[C@H](Cc1c[nH]cn1)NC(=O)COc1cccc2ccccc12)C(=O)NCc1ccccn1` (stereo partly drawn) the figure was 58.5 nM; with `CC(C)CCNC(=O)N(C[C@@H](O)[C@H](Cc1ccccc1)NC(=O)[C@H](CC(N)=O)NC(=O)c1ccc2ccccc2n1)C(C)(C)C`, 3 nM. Then `CCC(C)(NC(=O)[C@@H](NC(=O)[C@@H](NC(=O)C[C@H](O)[C@H](CC(C)C)NC(=O)[C@H](C)NC(=O)C[C@H](O)[C@@H](N)CC(C)C)C(C)C)C(C)C)C(=O)O` (stereo partly drawn) (H-[Sta]A[Sta]VV[ξIva]-OH), with 12000 nM. With `CC[C@@H](C)[C@H](NC(=O)[C@@H](CC(C)C)C(O)C(O)[C@H](CC(C)C)NC(=O)C(Cc1c[nH]cn1)NC(=O)COc1cccc2ccccc12)C(=O)NCc1ccccn1` (stereo partly drawn) the figure was 495 nM; with `CC(C)(C)NC(=O)[C@@H]1CCCN1C[C@H](O)[C@H](Cc1ccccc1)NC(=O)[C@H](CC(N)=O)NC(=O)OCc1ccccc1`, 210 nM; with `CC(C)(C)N(C[C@@H](O)[C@H](Cc1ccccc1)NC(=O)[C@H](CC(N)=O)NC(=O)OCc1ccccc1)C(=O)NCc1ccncc1`, 105 nM. `CC[C@H](C)[C@H](NC(=O)[C@@H](C(C)C)C(O)C(O)[C@H](CC(C)C)NC(=O)[C@H](Cc1c[nH]cn1)NC(=O)COc1cccc2ccccc12)C(=O)NCc1ccccn1` (stereo partly drawn): the IC50 is 11.2 nM.

`COC(=O)[C@@H](NC(=O)[C@H](CC(C)C)NC(=O)[C@@H]1CCCN1C[C@H](O)[C@H](Cc1ccccc1)NC(=O)[C@H](CC(N)=O)NC(=O)OC(C)(C)C)C(C)C` had an IC50 of 849 nM. Then `CC(C)(C)N(C[C@@H](O)[C@H](Cc1ccccc1)NC(=O)[C@H](CC(N)=O)NC(=O)OCc1ccccc1)C(=O)NCC1CCCCC1`, with 29 nM; and `C[C@H](NC(=O)N(C[C@@H](O)[C@H](Cc1ccccc1)NC(=O)[C@H](CC(N)=O)NC(=O)OCc1ccccc1)C(C)(C)C)c1ccccc1`, with 5090 nM; and `CC[C@H](C)[C@H](NC(=O)[C@@H](Cc1ccccc1)[C@@H](O)[C@H](O)[C@H](Cc1ccccc1)NC(=O)[C@H](Cc1c[nH]cn1)NC(=O)COc1cccc2ccccc12)C(=O)NCc1ccccn1`, with 27 nM. Turning to `CCCCN(C[C@@H](O)[C@H](Cc1ccccc1)NC(=O)[C@H](CC(N)=O)NC(=O)c1ccc2ccccc2n1)C(=O)NCC(C)C`, inhibition was half-maximal at 126 nM (IC50). Compound `CC(C)CNC(=O)N(C[C@@H](O)[C@H](Cc1ccccc1)NC(=O)[C@H](CC(N)=O)NC(=O)OCc1ccccc1)C(C)C` gave an IC50 of 260 nM. Compound `CC[C@H](C)[C@H](NC(=O)[C@@H]1CCCN1CC(O)[C@H](Cc1ccccc1)NC(=O)[C@H](CC(N)=O)NC(=O)OCc1ccccc1)C(=O)N[C@H](C(=O)OC)C(C)C` (stereo partly drawn) gave an IC50 of 316 nM. Compound `CC[C@H](C)[C@H](NC(=O)[C@@H]1CCCN1CC(O)[C@H](Cc1ccccc1)NC(=O)[C@H](CC(N)=O)NC(=O)c1ccc2ccccc2n1)C(=O)N[C@@H](Cc1ccccc1)C(=O)OC` (stereo partly drawn) gave an IC50 of 2.3 nM. As for `CCCCN(C[C@@H](O)[C@H](Cc1ccccc1)NC(=O)[C@H](CC(N)=O)NC(=O)OCc1ccccc1)C(=O)NCC(C)C`, the IC50 is 942 nM. `CCN(C[C@@H](O)[C@H](Cc1ccccc1)NC(=O)[C@H](CC(N)=O)NC(=O)OCc1ccccc1)C(=O)NCC(C)C` showed an IC50 of 330 nM. Then `CC[C@H](C)[C@H](NC(=O)[C@@H](C(C)C)C(O)C(O)[C@H](CC1CCCCC1)NC(=O)[C@H](Cc1c[nH]cn1)NC(=O)CO)C(=O)NCc1ccccn1` (stereo partly drawn), with 8.99 nM. `CC(C)(C)OC(=O)[C@@H]1CCCN1C[C@H](O)[C@H](Cc1ccccc1)NC(=O)OCc1ccccc1` gave an IC50 of 6500 nM.

The compound `COC(=O)[C@@H](NC(=O)[C@H](CC(C)C)NC(=O)[C@@H]1CCCN1C[C@@H](O)[C@H](Cc1ccccc1)NC(=O)[C@H](CC(N)=O)NC(=O)OC(C)(C)C)C(C)C` had an IC50 of 16 nM. As for `CC(C)(C)OC(=O)N[C@@H](CC(N)=O)C(=O)N[C@@H](Cc1ccccc1)C(O)C[C@@H](Cc1ccccc1)C(=O)N[C@H]1c2ccccc2C[C@H]1O` (stereo partly drawn), 295 nM corresponded to half-maximal inhibition (IC50). In turn, `CCCN(C[C@@H](O)[C@H](Cc1ccccc1)NC(=O)[C@H](CC(N)=O)NC(=O)OCc1ccccc1)C(=O)NCC(C)C` had an IC50 of 519 nM.

The compound `CC[C@H](C)[C@H](NC(=O)[C@@H](C(C)C)C(O)C(O)[C@H](CC1CCCCC1)NC(=O)[C@H](Cc1c[nH]cn1)NC(=O)CN)C(=O)NCc1ccccn1` (stereo partly drawn) gave an IC50 of 24.8 nM.

In turn, `CC[C@H](C)[C@H](NC(=O)[C@H](CC(C)C)C(O)C(O)[C@H](CC(C)C)NC(=O)[C@H](Cc1c[nH]cn1)NC(=O)COc1cccc2ccccc12)C(=O)NCc1ccccn1` (stereo partly drawn) showed an IC50 of 15.7 nM.

Take `CC(C)CNC(=O)N(C)C[C@@H](O)[C@H](Cc1ccccc1)NC(=O)[C@H](CC(N)=O)NC(=O)OCc1ccccc1`: the IC50 is 1500 nM. With `CC[C@H](C)[C@H](NC(=O)[C@@H](C(C)C)C(O)C(O)[C@H](Cc1c[nH]cn1)NC(=O)COc1ccccc1)C(=O)NCc1ccccn1` (stereo partly drawn) the figure was 11.2 nM; with `CC(C)CNC(=O)N(C[C@@H](O)[C@H](Cc1ccccc1)NC(=O)[C@H](CC(N)=O)NC(=O)OCc1ccccc1)C(C)(C)C`, 35 nM; with `CC(C)(C)NC(=O)C1CCCCN1C[C@H](O)[C@H](Cc1ccccc1)NC(=O)C(CC(N)=O)NC(=O)c1ccc2ccccc2n1` (stereo partly drawn), 2 nM. As for `CC(C)(C)OC(=O)N[C@@H](Cc1ccccc1)C(O)C[C@@H](Cc1ccccc1)C(=O)N[C@H]1c2ccccc2C[C@H]1O` (stereo partly drawn), the IC50 was 252 nM. `CC[C@H](C)[C@H](N)C(=O)N[C@@H](CCC(N)=O)C(=O)N[C@@H](CC(C)C)[C@@H](O)CC(=O)N[C@@H](CC(N)=O)C(=O)N[C@@H](Cc1ccccc1)C(=O)N[C@@H](CO)C(=O)O` (H-IQ[Sta]NFS-OH): the IC50 was 12000 nM.

These data come from ChEMBL document CHEMBL1126565, “Three-dimensional QSAR of human immunodeficiency virus (I) protease inhibitors. 1. A CoMFA study employing experimentally-determined alignment rules” (J Med Chem, 1993).
